One data set has as its system mouse brain. Conditions: in vivo.
In the next data set the test system is ob/ob mice. The data set is described as follows: treatment of obese (ob/ob) mice with exendin-4/Angiopep-2 conjugate. Format: in vivo, mouse. Conditions: Q1D, higher doses (exendin-4 30 μg/kg, Exen-An2 48 μg/kg), vs control. The procedure: Obese mice (ob/ob mice) were administered the [Lys^39-MHA]exendin-4/Angiopep-2-Cys-NH2 conjugate (Exen-An2).
A 1.6 μg/kg dose of Exen-An2 is equivalent to a 1 μg/kg dose of exendin-4. The body weight of each mouse was measured daily. Food intake was estimated based on the mean values for each group, and glycemia was measured one hour following treatment.

For the next data set, the system named is DIO mice. The data set is described as follows: reduction of glycemia in DIO mice after bolus injection. Conditions: vs control. The data set is classed as in vivo, mouse. The procedure: We also tested the ability of the exendin-4-Angiopep-2 dimer conjugate to reduce glycemia in DIO mice. Mice were injected with a bolus containing a control, exendin-4, or the exendin-4-Angiopep-2 dimer conjugate.

The values that follow come from patent US8921314B2, “Conjugates of GLP-1 agonists and uses thereof” (Angiochem, Inc., priority 2008, dated 2014).

Entries after “also recorded” stand apart in the source; their conditions may differ.

Description for mouse brain: To measure brain uptake of the exendin-4/Angiopep-2 conjugates, we used an in situ perfusion assay. […] The uptake of labeled exendin-4 and the exendin-4/Angiopep-2 conjugates was measured using the in situ brain perfusion method adapted in our laboratory for the study of drug uptake in the mouse brain (Dagenais et al., J Cereb Blood Flow Metab. 20:381-6, 2000; Cisternino et al., Pharm Res 18, 183-190, 2001). Briefly, the right common carotid artery of mice anesthetized with ketamine/xylazine (140/8 mg/kg i.p.) was exposed and ligated at the level of the bifurcation of the common carotid, rostral to the occipital artery. The common carotid was then catheterized rostrally with polyethylene tubing filled with heparin (25 U/ml) and mounted on a 26-gauge needle. The syringe containing the perfusion fluid ([^125I]-proteins or [^125I]-peptides in Krebs/bicarbonate buffer at pH 7.4, gassed with 95% O2 and 5% CO2) was placed in an infusion pump (Harvard pump PHD 2000; Harvard Apparatus) and connected to the catheter. Prior to the perfusion, the contralateral blood flow contribution was eliminated by severing the heart ventricles. The brain was perfused for 5 min at a flow rate of 1.15 ml/min. After perfusion of radiolabeled molecules, the brain was further perfused for 60 s with Krebs buffer, to wash away excess [^125I]-proteins. […]

For “[Lys^39-MHA]exendin-4/Angiopep-2-Cys-NH2 [Exen-An2]”, the brain distribution with mouse brain came out at 10 ml/100 g/2 min.

Take exendin-4 [reference compound]: the body weight gain result with ob/ob mice (after 10 days, FIG. 5) was “lower than the control; also recorded: reduce weight gain”. In addition, the food intake entry in the data set on ob/ob mice (FIG. 6) was “reduced; also recorded: reduce food intake”. In the data set on DIO mice, the glycemia entry is given as “reduced glycemia”. The same substance registered a brain distribution in the data set with mouse brain of 0.2 ml/100 g/2 min.
